Data from PubChem BioAssay (NCI).
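Cultured in 96-well plates, cells were exposed to test compound for 48 hours across five concentrations. Abbreviation: GI50, concentration required for 50% inhibition of growth. TGI: concentration producing complete growth inhibition.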

Assays:
Experiment in all cases: DTP human tumour cell line panel, 48 h
[1] = tested on: NCI-H226 lung
[2] = tested on: NCI-H522 lung
[3] = tested on: HCC-2998 colon
[4] = tested on: SK-MEL-5 melanoma
[5] = tested on: T-47D breast
[6] = tested on: CAKI-1 renal
[7] = tested on: UACC-257 melanoma
[8] = tested on: SF-268 CNS
[9] = tested on: HT29 colon
[10] = tested on: SNB-19 CNS
[11] = tested on: NCI-H23 lung
[12] = tested on: U251 CNS
[13] = tested on: MCF7 breast
[14] = tested on: A498 renal
[15] = tested on: SNB-75 CNS
[16] = tested on: EKVX NSCLC
[17] = tested on: NCI-H460 lung
[18] = tested on: UACC-62 melanoma
[19] = tested on: A549 NSCLC
[20] = tested on: UO-31 renal
[21] = tested on: M14 melanoma
[22] = tested on: KM12 colon
[23] = tested on: MDA-MB-231 breast
[24] = tested on: SN12C renal
[25] = tested on: OVCAR-8 ovarian
[26] = tested on: HOP-92 NSCLC
[27] = tested on: HCT-116 colon
[28] = tested on: SF-295 CNS
[29] = tested on: RPMI-8226 leukemia
[30] = tested on: BT-549 breast
[31] = tested on: CCRF-CEM leukemia
[32] = tested on: LOX IMVI melanoma
[33] = tested on: SK-OV-3 ovarian
[34] = tested on: RXF 393 renal
[35] = tested on: SF-539 CNS
[36] = tested on: SR leukemia
[37] = tested on: MDA-MB-468 breast
[38] = tested on: OVCAR-5 ovarian
[39] = tested on: HL-60(TB) leukemia
[40] = tested on: SW-620 colon
[41] = tested on: COLO 205 colon
[42] = tested on: OVCAR-3 ovarian
[43] = tested on: HOP-62 NSCLC
[44] = tested on: PC-3 prostate
[45] = tested on: OVCAR-4 ovarian
[46] = tested on: IGROV1 ovarian
[47] = tested on: NCI/ADR-RES ovarian
[48] = tested on: DU-145 prostate
[49] = tested on: MALME-3M melanoma
[50] = tested on: MDA-MB-435
[51] = tested on: 786-0 renal
[52] = tested on: SK-MEL-28 melanoma
[53] = tested on: K-562 leukemia
[54] = tested on: HCT-15 colon
[55] = tested on: ACHN renal
[56] = tested on: TK-10 renal
[57] = tested on: MOLT-4 leukemia
[58] = tested on: SK-MEL-2 melanoma
[59] = tested on: HS 578T breast

C#CCNC(=O)CCC(=O)OC[C@]12CC[C@@H](C(=C)C)[C@@H]1C1CC[C@@H]3[C@@]4(C)CCCNC(C)(C)[C@@H]4CC[C@@]3(C)[C@]1(C)CC2 (some centres undefined)
GI50 [1]: 7.58 µM | TGI [1]: 18.3 µM | GI50 [2]: 11.7 µM | TGI [2]: 25.4 µM | GI50 [3]: 2550 nM | TGI [3]: 10.3 µM | GI50 [4]: 6.78 µM | TGI [4]: 14.4 µM | GI50 [5]: 8.06 µM | TGI [5]: 21.1 µM | GI50 [6]: 8.1 µM | TGI [6]: 17.2 µM | GI50 [7]: 2510 nM | TGI [7]: 9.16 µM | GI50 [8]: 10.5 µM | TGI [8]: 23.8 µM | GI50 [9]: 2710 nM | TGI [9]: 13.9 µM | GI50 [10]: 8.91 µM | TGI [10]: 17.6 µM | GI50 [11]: 7.89 µM | TGI [11]: 16.1 µM | GI50 [12]: 6.62 µM | TGI [12]: 16.8 µM | GI50 [13]: 2360 nM | TGI [13]: 9.66 µM | GI50 [14]: 10.3 µM | TGI [14]: 20.9 µM | GI50 [15]: 9.12 µM | TGI [15]: 18.7 µM | GI50 [16]: 6.5 µM | TGI [16]: 14.2 µM | GI50 [17]: 7.89 µM | TGI [17]: 18.6 µM | GI50 [18]: 9.04 µM | TGI [18]: 18.1 µM | GI50 [19]: 7.12 µM | TGI [19]: 16.7 µM | GI50 [20]: 6.96 µM | TGI [20]: 14.9 µM | GI50 [21]: 6.83 µM | TGI [21]: 19 µM | GI50 [22]: 8.73 µM | TGI [22]: 18.8 µM | GI50 [23]: 8.83 µM | TGI [23]: 17.7 µM | GI50 [24]: 7.89 µM | TGI [24]: 16.7 µM | GI50 [25]: 11.1 µM | TGI [25]: 33.8 µM | GI50 [26]: 7.54 µM | TGI [26]: 19 µM | GI50 [27]: 3310 nM | TGI [27]: 27.4 µM | GI50 [28]: 3540 nM | TGI [28]: 12.2 µM | GI50 [29]: 4.15 µM | TGI [29]: 20.7 µM | GI50 [30]: 11.3 µM | TGI [30]: 21.1 µM | GI50 [31]: 4.24 µM | TGI [31]: 37.1 µM | GI50 [32]: 1230 nM | TGI [32]: 2.83 µM | GI50 [33]: 9.94 µM | TGI [33]: 20 µM | GI50 [34]: 3510 nM | TGI [34]: 13.6 µM | GI50 [35]: 7.48 µM | TGI [35]: 15.7 µM | GI50 [36]: > 64800 nM | TGI [36]: > 64800 nM | GI50 [37]: 2210 nM | TGI [37]: 10.5 µM | GI50 [38]: 9.38 µM | TGI [38]: 17.9 µM | GI50 [39]: 2370 nM | TGI [39]: 14 µM | GI50 [40]: 7.25 µM | TGI [40]: 16.7 µM | GI50 [41]: 2250 nM | TGI [41]: 7.29 µM | GI50 [42]: 7.73 µM | TGI [42]: 18.2 µM | GI50 [43]: 11.7 µM | TGI [43]: 23.7 µM | GI50 [44]: 4.8 µM | TGI [44]: 16.3 µM | GI50 [45]: 9.11 µM | TGI [45]: 20.8 µM | GI50 [46]: 7.29 µM | TGI [46]: 16.3 µM | GI50 [47]: 5.48 µM | TGI [47]: 16.6 µM | GI50 [48]: 10 µM | TGI [48]: 21.5 µM | GI50 [49]: 9.03 µM | TGI [49]: 18.5 µM | GI50 [50]: 6.9 µM | TGI [50]: 15.2 µM | GI50 [51]: 8.29 µM | TGI [51]: 23.6 µM | GI50 [52]: 8.2 µM | TGI [52]: 16.5 µM | GI50 [53]: 1780 nM | TGI [53]: 16.3 µM | GI50 [54]: 3890 nM | TGI [54]: 12.4 µM | GI50 [55]: 10.1 µM | TGI [55]: 18.9 µM | GI50 [56]: 10.1 µM | TGI [56]: 22 µM | GI50 [57]: 2420 nM | TGI [57]: 18.7 µM | GI50 [58]: 11.7 µM | TGI [58]: 23.3 µM | GI50 [59]: 9.96 µM | TGI [59]: 24.2 µM

COc1ccc2[nH]cc(-c3cc(N)n4nc(-c5cn(C)c6ccccc56)cc4n3)c2c1
GI50 [1]: 1.87 µM | TGI [1]: 4.74 µM | GI50 [2]: 1.52 µM | TGI [2]: 2.99 µM | GI50 [3]: 1940 nM | TGI [3]: 3.38 µM | GI50 [4]: 1.76 µM | TGI [4]: 3.14 µM | GI50 [5]: 2.01 µM | TGI [5]: 4.43 µM | GI50 [6]: 1.73 µM | TGI [6]: 3.12 µM | GI50 [7]: 1680 nM | TGI [7]: 3.1 µM | GI50 [8]: 1.94 µM | TGI [8]: 4.05 µM | GI50 [9]: 1800 nM | TGI [9]: 3.22 µM | GI50 [10]: 1.66 µM | TGI [10]: 3.11 µM | GI50 [11]: 1.97 µM | TGI [11]: 3.95 µM | GI50 [12]: 1.69 µM | TGI [12]: 3.15 µM | GI50 [13]: 1460 nM | TGI [13]: 3.25 µM | GI50 [14]: 1.73 µM | TGI [14]: 3.23 µM | GI50 [15]: 1.4 µM | TGI [15]: 2.81 µM | GI50 [16]: 1.8 µM | TGI [16]: 3.89 µM | GI50 [17]: 1.9 µM | TGI [17]: 3.62 µM | GI50 [18]: 1.62 µM | TGI [18]: 2.99 µM | GI50 [19]: 1.54 µM | TGI [19]: 2.9 µM | GI50 [20]: 1.46 µM | TGI [20]: 2.78 µM | GI50 [21]: 1.79 µM | TGI [21]: 3.93 µM | GI50 [22]: 2.03 µM | TGI [22]: 4.22 µM | GI50 [23]: 1.51 µM | TGI [23]: 2.84 µM | GI50 [24]: 1.53 µM | TGI [24]: 2.86 µM | GI50 [25]: 1.75 µM | TGI [25]: 3.27 µM | GI50 [26]: 1.68 µM | TGI [26]: 3.24 µM | GI50 [27]: 1540 nM | TGI [27]: 3.69 µM | GI50 [28]: 1780 nM | TGI [28]: 3.34 µM | GI50 [29]: 1.94 µM | TGI [29]: 5 µM | GI50 [31]: 1.86 µM | TGI [31]: 6.44 µM | GI50 [32]: 1760 nM | TGI [32]: 3.28 µM | GI50 [33]: 1.81 µM | TGI [33]: 3.36 µM | GI50 [34]: 1740 nM | TGI [34]: 3.39 µM | GI50 [35]: 1.61 µM | TGI [35]: 3.01 µM | GI50 [36]: 343 nM | TGI [36]: 1730 nM | GI50 [37]: 1570 nM | TGI [37]: 3.06 µM | GI50 [38]: 1.73 µM | TGI [38]: 3.27 µM | GI50 [39]: 1390 nM | TGI [39]: 3.58 µM | GI50 [40]: 1.81 µM | TGI [40]: 3.47 µM | GI50 [41]: 1790 nM | TGI [41]: 3.41 µM | GI50 [42]: 1.8 µM | TGI [42]: 3.34 µM | GI50 [43]: 1.89 µM | TGI [43]: 3.76 µM | GI50 [44]: 1.67 µM | TGI [44]: 3.52 µM | GI50 [45]: 1.7 µM | TGI [45]: 3.19 µM | GI50 [46]: 1.62 µM | TGI [46]: 3.05 µM | GI50 [47]: 1.89 µM | TGI [47]: 3.82 µM | GI50 [48]: 1.82 µM | TGI [48]: 3.52 µM | GI50 [49]: 1.74 µM | TGI [49]: 3.14 µM | GI50 [50]: 1.77 µM | TGI [50]: 3.23 µM | GI50 [51]: 1.59 µM | TGI [51]: 3.12 µM | GI50 [52]: 1.78 µM | TGI [52]: 3.23 µM | GI50 [53]: 614 nM | TGI [53]: 6.66 µM | GI50 [54]: 1230 nM | TGI [54]: 2.52 µM | GI50 [55]: 1.87 µM | TGI [55]: 3.43 µM | GI50 [56]: 1.89 µM | TGI [56]: 3.37 µM | GI50 [57]: 1590 nM | TGI [57]: 4.38 µM | GI50 [58]: 1.67 µM | TGI [58]: 3.13 µM | GI50 [59]: 2.05 µM | TGI [59]: 4.83 µM
